Source: US5016655A, “Cigarette manufacturing process” (priority 1989, dated 1991)
Entries after “also recorded” stand apart in the source; their conditions may differ. Like-named read-outs stand apart in the source and are kept apart here.

What was measured:
[1] = tested on: human; settings: cited from earlier work
[2] = cited from earlier work; for Boiling Point: Table V
[3] = tested on: localization of radioactivity of [14C]NNN in bronchial epithelium; test: alcohols by inhalation, localization of radioactivity of [14C]NNN (Table VII); assay type: in vivo, mice; settings: for potency as inhibitor in mice: mouse, in vivo
Protocol: Additional alcohols were tested for their effects on the localization of radioactivity of [^14 C]NNN in bronchial epithelium when the alcohols were administered by inhalation. For these studies, two ml of the alcohol were placed in the bottom of a 600 ml glass beaker. A wire mesh platform was constructed so that the mouse was positioned approximately three-quarter to one inch above the alcohol. The beaker was kept tightly sealed unless otherwise indicated. All mice were fasted overnight, except where noted, and sacrificed one hour after intravenous [^14 C]NNN administration. These mice were also processed for whole-body autoradiography. Although the protocols varied slightly as summarized below, these minor differences should not effect the results.
A. Exposures in beakers maintained at 50° C. (plus or minus
B. Exposure in beakers at room temperature. Beakers were
C. Beakers equilibrated with alcohols at least 20 min in […]

[4] = tested on: localization of radioactivity ([14C]NNN) in bronchial epithelium; test: effect of substances on localization of radioactivity one hour after intravenous [14C]NNN (Table VI); assay type: in vivo, mice; settings: for response on the uptake of radioactivity in the bronchial epithelium / decrease in the localization of radioactivity in bronchial epithelium: solids at ambient temperature; for decrease in the localization of radioactivity in bronchial epithelium: one hour after intravenous [14C]NNN
From the text: Table VI below lists the compounds tested for their effect on the localization of radioactivity in bronchial epithelium one hour after intravenous administration of [^14 C]NNN. Unless indicated otherwise, the compounds were parenterally administered acutely at various times prior to [^14 C]NNN. In many cases only one mouse was studied for each compound. […].
Effect of substances on the localization of radioactivity in bronchial epithelium of mice one hour after intravenously receiving [^14 C] nitrosonornicotine.
For all the remaining compounds the general protocol was to administer the potential blocker some minutes prior to administration of the [^14 C]NNN. Potential blockers were given orally, intraperitoneally or by inhalation, and the [^14 C]NNN was given intravenously.

[5] = tested on: rats; settings: cited from earlier work
[6] = tested on: localization of nitrosamines (NNN, NNK) in tissues; test: nitrosamine delocalization / blocking, general statements; settings: in vivo
[7] = tested on: localization of radioactivity ([14C]NNN) in bronchial epithelium; test: orally administered alcohols, localization of radioactivity after intravenous [14C]NNN; assay type: in vivo, mice; settings: gavage 1.0 g/kg, 20 min before iv [14C]NNN
Protocol: For each of these alcohols, the mouse was fasted overnight, the alcohol in aqueous solution at a dose of 1.0 g/kg was administered by gavage and after twenty minutes the [^14 C]NNN was injected intravenously. All mice were sacrificed one hour after the [^14 C]NNN treatment and processed for whole-body autoradiography,as described previously.

[8] = tested on: tumor formation; settings: rat, in vivo; cited from earlier work
[9] = tested on: nitrosamine formation on epithelial membranes; tumor development; settings: cited from earlier work
[10] = tested on: localization of radioactivity ([14C]NNN) in salivary duct and bronchial epithelium and liver; test: whole-body autoradiography of [14C]NNN localization after oral alcohols (Example 1, FIG. 1); assay type: in vivo, male C57BL/6J mice
Protocol: One hour later, the mice were anesthetized lightly with ether and frozen by immersion in dry ice/hexane. Twenty u-thick whole-body sagittal sections of the frozen mice were taken onto Scotch tape and were then processed for whole-body autoradiography by known methods. See W. Waddell et al., Drug Fate and Metabolism: Methods and Techniques, E. R. Garrett and J. L. Hirtz, Eds. […] Photometric density in areas of the developed autoradiographs was measured with an ADG Instruments photometer and a photocell with an aperture of three mm lying on the easel of a photographic enlarger. The X-ray film was placed in the enlarger and raised to produce a magnification of thirty-five times on the easel.
NNN. […] (Twenty minutes is the average time it takes for alcohols introduced by oral intubation into mice to reach the peak blood level.)
The number within each bar thereof represents the dose in g/kg of that alcohol which was administered orally twenty minutes before the [^14 C] NNN was given intraveously. The mice were frozen one hour after receiving the [^14 C] NNN. The means for each mouse were from fifteen measurements on random areas of that site (five absorbancies on each of three autoradiographs) after setting blood in each on zero.

[11] = tested on: nitrosamine ([14C]NNN) localization; test: imidazole intraperitoneal, [14C]NNN autoradiography (Examples 4 and 5); assay type: in vivo, male C57BL/6J mouse; settings: ip
Protocol: An adult male C57BL/6J mouse was injected intraperitoneally with 0.02 ml/g body weight of a solution of imidazole in water. The imidazole solution concentration was such that 0.05 g of imidazole was delivered per kg of body weight. […] See Example 1.
Example 4 was duplicated except that the adult mouse was injected intraperitoneally with 0.02 ml/g body weight of a solution of imidazole in water, wherein the solution concentration was such that 0.25 g of imidazole was delivered per kg of body weight.

In the case of `OCCC(O)CO` (stereo not shown) [1,2,4-ButanetrioI, 1,2,4-butanetriol], the “Toxicity” value ([1]; Table V) is listed as “Non-toxic” and the “Boiling Point” value [2] is listed as 172 °C.
For `CC(O)CCO` (stereo not shown) [1,3 Butanediol], the “Toxicity” value ([1]; Table V) is listed as “Non-toxic” and the “Boiling Point” value [2] is listed as 207 °C.
For `CCCCCCO` [1-hexanol], the “potency as inhibitor in mice” value [3] was “among the most potent inhibitors”.
With `CC(C)[C@@H]1CC[C@@H](C)C[C@H]1O` [1-menthol] the “response on the uptake of radioactivity in the bronchial epithelium” value (from here on “response on the uptake of radioactivity”) [4] was “minimal response”.
For `CCC(CC)CO` [2-Ethyl butyl alcohol], the “Toxicity” value ([1]; Table V) is listed as “Low-toxicity” and the “Boiling Point” value [2] is listed as 149 °C.
For `CCCCC(CC)CO` (stereo not shown) [2-ethyl hexanol], the “Acute Oral LD50” value ([5]; rat, in vivo, po) is given as 3.2-7.1 and the “Toxicity” value ([1]; Table V) is given as “Low-toxicity”.
For `CCCCCCC(C)O` (stereo not shown) [2-octanol], the “effectiveness against NNN or NNK” value [6] is given as “against NNK”, the “potency as inhibitor in mice” value [3] is given as “among the most potent inhibitors” and the boiling points [2] is given as 180 °.
For `CCCC(C)O` (stereo not shown) [2-pentanol], the “decrease in the localization of radioactivity in bronchial epithelium” value (shortened to “decrease in the localization”) [7] was “significant decrease”.
For `CC1CCCC(O)C1` (stereo not shown) [3-methylcyclohexanol], the “potency compared with cyclohexanol” value ([3]; inhalation) is listed as “even more potent than cyclohexanol”, the “potency as inhibitor in mice” value [3] is listed as “among the most potent inhibitors” and the boiling points [2] is listed as 174 °.
In the case of `CCCCCCC(C)O` (stereo not shown) [Capryl alcohol], the “Toxicity” value ([1]; Table V) is listed as “Low toxity” and the “Boiling Point” value [2] is listed as 178 °C.
In the case of `CCCCCCCCCCCCCCCCO` [Cetyl alcohol, hexadecanol], the “Toxicity” value ([1]; Table V) is listed as “Non-toxic”, the “Toxicity” value [1] is listed as “non-toxic” and the “Boiling Point” value [2] is listed as 344 °C.
In the case of `OCC=Cc1ccccc1` [Cinnamyl alcohol], the “Boiling Point” value [2] is given as 257.5 °C.
For `C[S+](C)[O-]` [DMSO, dimethylsulfoxide], the “nitrosamine delocalization / inhibition of nitrosamine localization” value (“nitrosamine delocalization / inhibition” below) [6] was “found to delocalize nitrosamines” and the “decrease of radioactivity in bronchial epithelium, oral vs ip” value ([4]; given orally) was “less decrease”.
In the case of `CCCCCCCCCCCCO` [Lauryl alcohol], the “Toxicity” value ([1]; Table V) is given as “Low-toxicity” and the “Boiling Point” value [2] is given as 255 °C.
For `CN(CCCC(=O)c1cccnc1)N=O` [NNK], the “carcinogenicity / tumor induction” value [8] is listed as “powerful environmental carcinogens”.
For `CC(C)(O)C(C)(C)O` [Pinacol], the “Toxicity” value ([1]; Table V) is listed as “Low-toxicity” and the “Boiling Point” value [2] is listed as 174 °C.
For `[Se]` [Selenium], the “effect on tumor development” value [9] is given as “inhibit tumor development”.
In the case of `CCCCCCCCCCCCCCCCCCO` [Stearyl alcohol, octadecanol], the “Toxicity” value ([1]; Table V) is given as “Non-toxic”, the “Toxicity” value [1] is given as “non-toxic” and the “Boiling Point” value [2] is given as 210 °C.
For `O=C1O[C@H]([C@@H](O)CO)C(O)=C1O` [Vitamin C, ascorbic acid], the “effect on formation of nitrosamines on epithelial membranes” value [9] is given as “prevent the formation of nitrosamines”.
For `CCC(C)CO` (stereo not shown) [active amyl alcohol, 2-methyl-1-butanol], the “Acute Oral LD50” value ([5]; rats, oral) is given as 4.9 q/kg and the “decrease in the localization” value [7] is given as “significant decrease”.
For `S=C=NCc1ccccc1` [benzyl isothiocyanate], the “nitrosamine delocalization / inhibition” value [6] was “found to delocalize nitrosamines”.
In the case of `NCCCC(N)(C(=O)O)C(F)F` (stereo not shown) [difluoromethylornithine], the “response on the uptake of radioactivity” value [4] was “minimal response”.
In the case of `CCCCCCCCCCCCO` [dodecanol, 98%, dodecanol], the “Acute Oral LD50” value ([5]; rats, oral) is listed as 40 q/kg.
With `CCO` [ethanol] the “localization of radioactivity in salivary duct and bronchial epithelium and in both periportal and central areas of the liver” value ([10]; 20 min before iv [14C]NNN) was “reduced”.
For `c1c[nH]cn1` [imidazole], the “nitrosamine delocalization / inhibition” value [6] was “found to delocalize nitrosamines”, the “decrease in the localization” value [4] was “significant decrease” and the nitrosamine delocalization ([11]; 0.05 g/kg) was “Significant nitrosamine delocalization”. The nitrosamine delocalization ([11]; 0.25 g/kg) was “significant delocalization of nitrosamine”.
For `CC(C)CCO` [isoamyl alcohol], the “Acute Oral LD50” value ([5]; rats, oral) is listed as 1.30 q/kg and the “decrease in the localization” value [7] is listed as “significant decrease”.
In the case of `CC(C)CO` [isobutyl alcohol, isobutanol], the “Acute Oral LD50” value ([5]; rats, oral) is listed as 2.46 q/kg and the “decrease in the localization” value [7] is listed as “significant decrease”.
In the case of `CC(C)O` [isopropyl alcohol, isopropanol], the “Acute Oral LD50” value ([5]; rats, oral) is listed as 5.84 q/kg.
For `CC1CCC(C(C)C)C(O)C1` (stereo not shown) [menthol, reference compound], the “nitrosamine delocalization / inhibition” value [6] is listed as “does not have the same nitrosamine blocking effect; also recorded: does not inhibit nitrosamine localization”, the “Toxicity” value ([1]; Table V) is listed as “Flavor Agent” and the “Boiling Point” value [2] is listed as 216 °C.
With `CC(C)(C(=O)c1cccnc1)c1cccnc1` [metyrapone] the “decrease in the localization” value [4] was “significant decrease”.
For `CCCCCCCCCCO` [n-Decyl alcohol], the “Toxicity” value ([1]; Table V) is given as “Low-toxicity” and the “Boiling Point” value [2] is given as 210 °C.
For `CCCCCCCCCO` [n-Nonyl alcohol], the “Toxicity” value ([1]; Table V) is listed as “Low-toxicity”.
In the case of `CCCCCCCCO` [n-Octyl alcohol], the “Toxicity” value ([1]; Table V) is given as “Flavor agent” and the “Boiling Point” value [2] is given as 86 °C.
In the case of `c1ccc2ccccc2c1` [naphthalene], the “decrease in the localization” value [4] was “significant decrease”.
In the case of `C#CCN(C)Cc1ccccc1` [parqyline], the “response on the uptake of radioactivity” value [4] was “minimal response”.
With `O=Cc1ccc2c(c1)OCO2` [piperonal] the “decrease in the localization” value [4] was “significant decrease”.
For `CCCO` [propyl alcohol, n-propanol], the “Acute Oral LD50” value ([5]; rats, oral) is listed as 5.4 q/kg.
In the case of `NCCCCN` [putrescine], the “response on the uptake of radioactivity” value [4] was “minimal response”.
With `c1cn[nH]c1` [pyrazole] the “nitrosamine delocalization / inhibition” value [6] was “found to delocalize nitrosamines” and the “response on the uptake of radioactivity” value [4] was “minimal response”.
With `CC1=C(/C=C/C(C)=C/C=C/C(C)=C/C(=O)O)C(C)(C)CCC1` [retinoic acid] the “response on the uptake of radioactivity” value [4] was “minimal response”.
In the case of `CC1=C(/C=C/C(C)=C/C=C/C(C)=C/CO)C(C)(C)CCC1` [retinol], the “response on the uptake of radioactivity” value [4] was “minimal response”.
With `CCC(C)O` (stereo not shown) [sec-butyl alcohol, sec-butanol] the “decrease in the localization” value [7] was “significant decrease”.
For `[Cl-].[Na+]` [sodium chloride, reference compound], the LD50 ([5]; rats, oral, comparison) is listed as “about 3.75 g/Kg”.
With `CC(C)(C)O` [t-butanol] the “localization of [14C]NNN in bronchial epithelium” value ([10]; high dosage) was “almost completely abolished; also recorded: greatest inhibition”.
For Dipropylene glycol monomethyl, the “Boiling Point” value [2] is listed as 189 °C.
For Methyl cyclohexanol, the “Boiling Point” value [2] is listed as 173 °C.
In the case of Vitamin A, the “effect on tumor development” value [9] is given as “inhibit tumor development”.
For diaminopropane HCl, the “response on the uptake of radioactivity” value [4] was “minimal response”.
In the case of vitamin E, the “effect on formation of nitrosamines on epithelial membranes” value [9] is given as “prevent the formation of nitrosamines”.
